The nature of one data set: cells. The conditions noted are these: Mus musculus, Melan-a.
For another data set, the target named is T1, Tyrosinase (Agaricus bisporus, UniProt O42713).
T1 sequence (O42713 whole entry): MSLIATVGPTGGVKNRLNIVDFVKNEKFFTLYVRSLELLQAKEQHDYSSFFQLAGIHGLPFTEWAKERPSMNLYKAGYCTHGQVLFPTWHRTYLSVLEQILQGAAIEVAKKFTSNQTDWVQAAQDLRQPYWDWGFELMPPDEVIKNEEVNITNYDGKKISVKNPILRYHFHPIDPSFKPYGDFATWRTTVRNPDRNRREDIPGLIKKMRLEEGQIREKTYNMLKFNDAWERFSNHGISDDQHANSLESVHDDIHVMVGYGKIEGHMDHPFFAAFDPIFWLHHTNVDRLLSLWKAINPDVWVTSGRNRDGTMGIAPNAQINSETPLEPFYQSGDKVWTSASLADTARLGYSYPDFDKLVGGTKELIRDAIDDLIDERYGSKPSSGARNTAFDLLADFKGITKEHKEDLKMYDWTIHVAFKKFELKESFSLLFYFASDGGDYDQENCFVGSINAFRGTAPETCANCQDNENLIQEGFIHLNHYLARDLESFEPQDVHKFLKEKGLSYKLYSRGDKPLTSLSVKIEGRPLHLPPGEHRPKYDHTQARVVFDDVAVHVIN
Description: Inhibition of mushroom tyrosinase.

Data set [1] can be described thus: Cytotoxicity against mouse Melan-a cells assessed as cell survival at 80 uM. The conditions noted are these: read-out: Survival. The data set is classed as cell-based.
A short description of data set [2]: Cytotoxicity against mouse Melan-a cells at 46.64 uM. The data set is classed as cell-based.
The nature of data set [3]: Cytotoxicity against mouse Melan-a cells assessed as cell survival at 100 uM. The data set is classed as cell-based. To be noted: read-out: Survival.
A short description of data set [4]: Cytotoxicity against mouse Melan-a cells assessed as cell survival at 50 uM. The class given is cell-based. The conditions noted are these: read-out: Survival.

This note sets out measurements from ChEMBL document CHEMBL2010668 (Bioorg Med Chem Lett, 2012).

Bounds are passed on as bounds.

By IC50 is commonly meant the point on the concentration scale where inhibition reaches its midpoint. A lower IC50 goes with higher potency.

Description for cells: Depigmenting activity in mouse Melan-a cells assessed as melanin production

Regarding `O=C(/C=C/c1ccc2c(c1)OCO2)Oc1coc(CO)cc1=O`, the figures for the IC50 in “cells” and at Tyrosinase were 46.6 µM and greater than 200 µM, respectively. Moreover, the viability at 80 µM in data set [1] stood at 98.9%. In addition, the Activity entry in data set [2] is given as “Non-toxic”.

Regarding `O=C(/C=C/c1ccc2c(c1)OCO2)OCc1cc(=O)c(O)co1`, the concentration for half-maximal inhibition (IC50) in the data set “cells” is greater than 100 µM; against Tyrosinase, 1.53 µM. In data set [3], the viability at 100 µM came out at 97.1%.

Regarding `O=C(/C=C/c1ccc2c(c1)OCO2)OC(=O)/C=C/c1ccc2c(c1)OCO2`, the IC50 in the data set “cells” and against Tyrosinase was greater than 100 µM throughout. For the same compound, the viability at 100 µM in data set [3] came out at 97.1%.

On to `O=C(/C=C/c1ccc2c(c1)OCO2)OCc1cc(=O)c(OCc2cc(=O)c(O)co2)co1`, for which the values for the 50% inhibitory concentration (IC50) in “cells” and on Tyrosinase were 23.5 µM and greater than 100 µM, respectively. The viability at 50 µM in data set [4] was 95.9%.
